# Experimental data as given in US8580814B2, “Methods of using (+)-1,4-dihydro-7-[(3S,4S)-3-methoxy-4-(methylamino)-1-pyrrolidinyl]-4- oxo-1-(2-thiazolyl)-1,8-naphthyridine-3-carboxylic acid for treatment of cancer” (priority 2006, dated 2013).
# Marks after values point to notes of the source that are not given here.
# What was measured:
# [1] = test system: HCT-116 cells with 6 fold lower ATR levels; assay: MTT assay, sensitization (ATRFLOX); assay type: cell-based; conditions: compound 72 hours
# Description: (§1) Cells were then incubated with 5% MTT for 1-2 hours and lysed. MTT was colorimetrically read at 570 nm and EC50's were determined using linear regression analysis.
# (§2) Sensitization was carried out with various chemical treatments.
# [2] = test system: LM3-Jck human malignant lymphoma tumor; assay: LM3-Jck xenograft model; assay type: in vivo, nude mice; conditions: for IR (%) (tumor inhibition rate): LM3-JcK, q7d X3, IV; for Survival Ratio: nude, mouse, in vivo, iv, 21 days
# Description: LM3-Jck human malignant lymphoma tumor lobes (2-3 mm square) were transplanted subcutaneously into nude mice. Tumors were allowed to grow to approximately 7-14 mm in diameter. […] Acceptable toxicity was defined as a mean group weight loss of 30% or less and not more than one toxic death among 6 treated animals. Anti-tumor activities of the drugs were assessed 21 days after the start of administration.
# HCT-116 cells = assay: Repair of DNA damage (gH2AX foci) in the absence of ATM and ATR; assay type: cell-based; conditions: for 6 h with 2 mM caffeine, washout, 16 hours recovery
# Description: (§3) Compound was then removed and cells were allowed to recover for 16 hours. Cells were analyzed for gH2AX foci before and after drug washout.
# p73 null cells = assay: SNS-595 sensitivity in p73 null vs p73 containing cells; assay type: cell-based; conditions: p73 null cells as compared to p73 containing cells
# [3] = test system: HCT116 colon carcinoma cell line; assay: Combination studies, MTT assay, Combination Index; assay type: cell-based
# Description: Cell lines and Cell Culture: HCT116 and NCI-H460 cell lines were obtained from ATCC. SKOV3(p53−/−) and SKOV3(p53+/+) were obtained from the lab of Dr. George Stark of the Lerner Institute of the Cleveland Clinic. All cell lines were cultured in RPMI media supplemented with 10% FBS 1% Sodium Bicarbonate solution and 1% Antibiotic Solution (Cellgro).
# MTT assay: Cells were plated at 4000 cells per well (except SKOV3 (p53−/−) which were plated at 8000 cells per well) in a 96 well plate, incubated for 24 hours and then treated with compound. Compound treatment lasted 72 hours. Cells were then incubated with 5% MTT for 1-2 hours, and lysed. MTT was colorimetrically read at 570 nm. The fraction of dead cells was determined by the following formula: Fraction of Dead cells=1−[Abs of sample well−Avg(Abs of no cell control)]/[Avg(Abs of DMSO only control)−Avg(abs of no cell control)]
# Scheduling studies: When compounds were dosed with a schedule that included a washout, cells were washed with 100 μl of fresh warm media for 30 minutes, followed by another wash after 90 minutes.
# Statistical Analysis: The data (Fraction of Dead cells) was analyzed using Calculsyn.V2 (Biosoft) and is herein represented as the value of the Combination Index at Fraction affected (Fa)=0.5. All data is shown with error bars indicating the 95% confidence intervals of the mean value.
# A combination is said to be additive if it yields a Combination Index of 0.85-1.2. A combination is said to be synergistic if it yields a Combination Index less than 0.85 and a combination is said to be antagonistic if it yields a Combination Index of more than 1.2.
# [4] = Safety in patients with advanced or refractory acute leukemias; assay type: in vivo, human
# Description: SNS-595 was administered to patients with advanced or refractory acute leukemias as a slow IV push. Diagnoses included AML (19 patients) and ALL (2 patients). All patients had disease refractory to or relapsed from prior therapy (median 3 prior regimens (range 1-6)). A total of 21 patients (9 female and 12 male; median age=64 yrs, range 21-80) were treated in five cohorts using two schedules. In the first schedule (A), a weekly dose of SNS-595 was administered for three weeks followed by 7 days off (qwk×3). In the second schedule (B), a dose of SNS-595 was administered twice a week for two weeks (biwk×2). The cycle duration, including days off, was 28 days for both schedules. […] Additional cycles were permitted if patients achieved stable disease or better. The starting dose was 18 mg/m^2 on schedule A and 9 mg/m^2 on schedule B, and dosage was escalated by cohort. Cohorts of 3-6 patients were accrued to doses using a modified Fibonacci sequence.
# [5] = test system: ATRFLOX (HCT-116 cells with 6 fold lower ATR levels); assay: Timing of apoptosis (caspase-3 activation); assay type: cell-based; conditions: Cell Line ATRFLOX; dosed at 30 fold above the EC50 for cytotoxicity
# [6] = test system: M059J (DNAPKcs(−/−)) cells; assay: Repair of DNA damage (gH2AX foci) in the absence of DNA-PK; assay type: cell-based; design: dose or concentration left out as unconfirmed; conditions: M059J vs M059K (wt), washout, 16 hours recovery
# Description: as §3
# HCT116 cells = assay: High content screening and microscopy, nuclear foci (gH2AX, pATM); assay type: cell-based; conditions: HCT116 cells dosed for 6 hour
# Description: Cells were plated as sub-confluent populations and allowed to grow for 36 hours. Cells were then treated with the compound at the given concentration for the given time period. Cells were fixed using 4% formaldehyde and permeabilized with 0.1% triton. Cells were exposed to primary antibodies for 1 hour at 25° C. at a 1:100 dilution in 10% FBS/PBS (anti-pATM—Chemicon, anti-gH2AX-Cell Signaling Technology). Cells were exposed to secondary antibodies for 1 hour at 25° C. at a 1:100 dilution in 10% FBS/PBS. Hoechst staining was carried out in 10% FBS/PBS at 500 ng/ml concentrations. High content screening was carried out on a Cellomics Arrayscan instrument using the Spot Detector algorithm. […] Cells were then fixed and analyzed for protein phosphorylation state (gH2AX images obtained using a fluorescence microscope, pATM images obtained with the ArrayScan VTi).
# [7] = test system: MO59J (DNAPKcs(−/−)) vs MO59K (DNAPKCs(+/+)); assay: MTT assay, sensitization (DNAPKcs(−/−)); assay type: cell-based
# Description: as §1, §2
# DNAPKcs(−/−) (MO59J) = assay: Timing of apoptosis (caspase-3 activation); assay type: cell-based; conditions: Cell Line DNAPKcs(−/−); dosed at 30 fold above the EC50 for cytotoxicity
# [8] = co-dosed, or dosed with 24 hours delay, HCT116
structure (smiles),measurement,setting,value
"CN[C@H]1CN(c2ccc3c(=O)c(C(=O)O)cn(-c4nccs4)c3n2)C[C@@H]1OC [SNS-595, (+)-1,4-dihydro-7-[(3S,4S)-3-methoxy-4-(methylamino)-1-pyrrolidinyl]-4-oxo-1-(2-thiazolyl)-1,8-naphthyridine-3-carboxylic acid]","Sensitization, fold decrease in the EC50 for cytotoxicity (MTT): ATRFLOX",[1],1 fold
same,antitumor activity against LM-3 Jck malignant lymphoma,[2]; 20 and 25 mg/kg,strong antitumor activity with complete tumor regressions
same,IR (%) (tumor inhibition rate),[2]; 20 mg/kg,98.9* %
same,IR (%) (tumor inhibition rate),[2]; 25 mg/kg,98.5* %
same,Survival Ratio,[2]; 20 mg/kg,6/6
same,Survival Ratio,[2]; 25 mg/kg,6/6
same,repair of induced DNA damage (gH2AX foci) in the absence of ATM and ATR,HCT-116 cells,readily repaired
same,decrease in SNS-595 sensitivity,p73 null cells,more than 11 fold
same,combination indices,"[3]; SNS-595 dosed simultaneously with various cytotoxics, HCT116, Fa=0.5",significantly synergistic or at least additive
same,combination effect with docetaxel,[3]; [8],might have been antagonistic
same,combination effect with gemcitabin,[3]; [8],might have been antagonistic
same,combination effect with docetaxel or gemcitabin,"[3]; treated with the first agent, washed and then treated with the second agent (2 hr wash and 24 hr wash), HCT116",Additivity or possibly synergy
same,Grade 4 neutropenic fever,[4]; acute leukemia patients,only one patient
same,Non-dose limiting toxicities,[4]; acute leukemia patients,"nausea/vomiting, diarrhea, and mucositis"
same,"SAE possibly related to study drug: Infection, CTCAE v3.0 Grade","[4]; biwk x2, 1 patient",Grade 3
same,"SAE possibly related to study drug: Neutropenic Fevers, CTCAE v3.0 Grade","[4]; biwk x2, 1 patient",Grade 4
same,"SAE possibly related to study drug: Infection with Neutropenia, CTCAE v3.0 Grade","[4]; qwk x3, 1 patient",Grade 3
same,"SAE possibly related to study drug: Pneumonia with Neutropenia, CTCAE v3.0 Grade","[4]; qwk x3, 1 patient",Grade 3
same,dose limiting toxicities (DLTs),[4]; up to 13.5 mg/m^2 on the biwk×2 schedule,No dose limiting toxicities
same,dose limiting toxicities (DLTs),[4]; up to 27 mg/m^2 on the qwk×3 schedule,No dose limiting toxicities
same,Timing of apoptosis: fraction of cell cycle to achieve 50% maximal caspase-3 activation,[5],0.35
same,repair of induced DNA damage (gH2AX foci) in the absence of DNA-PK,[6],not effectively repaired
same,"nuclear foci formation (gH2AX, pATM)",HCT116 cells,leads to nuclear foci formation
same,"sensitization, PIKK dependence",[7]; ATM/ATR or DNAPK activity inhibited or diminished,only when DNAPKcs activity is diminished
same,"Sensitization, fold decrease in the EC50 for cytotoxicity (MTT): DNAPKcs(−/−)","[7]; MO59J (DNAPKcs(−/−)) vs MO59K (DNAPKCs(+/+)), compound 72 hours",10 fold
same,Timing of apoptosis: fraction of cell cycle to achieve 50% maximal caspase-3 activation,DNAPKcs(−/−) (MO59J),0.25
